Test results published in patent US7396848B1, “Neurotrophin production/secretion promoting agent” (Takeda Pharmaceutical Company Limited, priority 2000, dated 2008).

How the values were obtained:
[1] = system: diabetic neuropathy model; experiment: Sensory nerve conduction velocity in STZ diabetic neuropathy model rats; format: in vivo, SD rats; details: 10 mg/kg body weight/day orally for 4 months
Procedure: A diabetic neuropathy model was made by injecting streptozotocin (STZ) into the tail vein of male 6-week-old SD rats in a dose of 70 mg/kg body weight. After 4 moths of housing, 10 mg/kg body weight/day of compound (5) which was suspended in 0.5% (w/v) methylcellulose was orally administered for 4 months. After administration, the rats were anesthetized with pentobarbital and the body temperature of the rats were kept 37° C. using a hotplate heated and an electric lamp. Then, conduction velocities of motor nerves and sensory nerves were determined using an induction potential test device (Neuropack 2, produced by Nihon Kohden) in the following manner. Proximal or distal positions of the sural nerve of the rats were stimulated at, in principle, 0.8 mA and the potential was recorded at the plantar skin. The sensory nerve conduction velocity was calculated from the distance and latencies of the two different stimulating sites.

BDNF [2] = experiment: BDNF content in pons of STZ diabetic neuropathy model rats; format: in vivo, SD rats; details: 10 mg/kg body weight/day orally for 1 month
Procedure: (§1) A diabetic neuropathy model was made by injecting streptozotocin (STZ) into the tail vein of male 6-week-old SD rats in a dose of 70 mg/kg body weight. After 4 weeks, 0.1 to 3 mg/kg body weight of compound (5) was orally administered for 4 weeks, and each tissue was collected. The collected tissue was supplemented with 25 to 40 times of disruption buffer (0.1 M Tris-hydrochloride buffer, pH 7.6, containing 1 M sodium chloride, 2% BSA, 2 mM EDTA, 80 trypsin units/L of aprotinin and 0.02% sodium azide) in terms of the wet tissue weight, which was subjected to sonication. After 30 minutes of centrifugation at 15,000 rpm, the supernatant was used as the sample and the NGF and BDNF contents were determined in the same manner as in Experimental Example 1.
(§2) A diabetic neuropathy model was made by injecting streptozotocin (STZ) into the tail vein of male 6-week-old SD rats in a dose of 70 mg/kg body weight. […]
(§3) While, the pons were collected from brain stem to determine the contents of neurotrophic factors. The BDNF contents were determined in the similar manner as in Experimental Example 2. The NT-3 contents were determined in the similar manner as in Experimental Example 2 except that an anti-NT-3 antibody (Brain Res. 1994, 12, pp. 143-146; Clin Chim Acta 1994, 227, pp. 23-36) was used.

NT-3 = NT-3 content in pons of STZ diabetic neuropathy model rats; format: in vivo, SD rats; details: 10 mg/kg body weight/day orally for 1 month
Procedure: as §1, §2, §3

BDNF [3] = experiment: BDNF content in peripheral and brain tissues of STZ diabetic neuropathy model rats; format: in vivo, SD rats
Procedure: (§4) The culture fluid obtained in each run of Reference Example 1A was recovered and assayed for the neurotrophin content therein. NGF was assayed by the enzyme immunoassay method described by Murase et al. in Biochemistry International, vol. 22, p. 807 (1990). Thus, an anti-NGF antibody (100 μg/ml) (antibody obtained by using mouse NGF as the antigen and immunizing New Zealand albino rabbits therewith) was distributed in 10-μl portions in the wells of 96-well round bottom plates and antibody adsorption was allowed to proceed by 2 hours standing at room temperature. After removing the antibody, each well was washed three times with a washing solution. A 10-μl portion of the above recovered culture fluid or standard NGF solution was placed in each well and the plates were allowed to stand at room temperature for 2.5 hours. After three times washings of each well, 20 μl of biotinylated anti-NGF antibody (35 ng/ml) was added thereto, followed by overnight standing at 4° C. […] After washing, 30 μl of 4-methylumbelliferyl-β-D-galactoside (produced by Sigma) (10 μg/μl) was added to the substrate, the reaction was allowed to proceed at room temperature for 4 hours and then terminated by addition of 130 μl of 0.1 M glycine-sodium hydroxide buffer (pH 10.3), and the fluorescent intensity of the 4-methylumbelliferone produced was determined (Ex: 360 nm; Em: 450 nm). The amount of NGF was calculated based on a standard curve and expressed in terms of relative multiplicity in relation to the amount of NGF (control) produced and secreted by cells treated in the same manner without adding the test compound. […]
(§5) A diabetic neuropathy model was made by injecting streptozotocin (STZ) into the tail vein of male 6-week-old SD rats in a dose of 70 mg/kg body weight. […] After 30 minutes of centrifugation at 15,000 rpm, the supernatant was used as the sample and the NGF and BDNF contents were determined in the same manner as in Experimental Example 1.

NGF [4] = experiment: NGF content in peripheral and brain tissues of STZ diabetic neuropathy model rats; format: in vivo, SD rats
Procedure: as §4, §5

[5] = system: diabetic neuropathy model; experiment: Hyperalgesia test (pressure-stimulant algesiometer, pain threshold of hind-limb) in STZ diabetic neuropathy model rats; format: in vivo, SD rats; details: 10 mg/kg body weight/day orally for 1 month
Procedure: A diabetic neuropathy model was made by injecting streptozotocin (STZ) into the tail vein of male 6-week-old SD rats in a dose of 70 mg/kg body weight. After 4 months of housing, 10 mg/kg body weight/day of compound (5) which was suspended in 0.5% (w/v) methylcellulose was orally administered for 1 month. After administration, a hvderalgesia test was conducted using a pressure-stimulant algesiometer (produced by Ugo Basil) to determine the pain threshold of hind-limb.

BDNF [6] = experiment: BDNF production/secretion promoting activity in cultured Schwann cells (enzyme immunoassay of culture fluid); format: cell-based, SD rats; details: 24 hours, concentrations of 10^−4 M to 10^−8 M, result in words
[7] = system: diabetic neuropathy model; experiment: Motor nerve conduction velocity in STZ diabetic neuropathy model rats; format: in vivo, SD rats; details: 10 mg/kg body weight/day orally for 4 months
Procedure: A diabetic neuropathy model was made by injecting streptozotocin (STZ) into the tail vein of male 6-week-old SD rats in a dose of 70 mg/kg body weight. After 4 moths of housing, 10 mg/kg body weight/day of compound (5) which was suspended in 0.5% (w/v) methylcellulose was orally administered for 4 months. After administration, the rats were anesthetized with pentobarbital and the body temperature of the rats were kept 37° C. using a hotplate heated and an electric lamp. Then, conduction velocities of motor nerves and sensory nerves were determined using an induction potential test device (Neuropack 2, produced by Nihon Kohden) in the following manner. Needle electrodes were placed at the thigh or the ankle of the rats. Then, the sciatic nerve or the tibial nerve was stimulated at, in principle, 1.6 mA and the action potential was recorded from the plantar muscle. The motor nerve conduction velocity was calculated from the distance and latencies of the two different stimulating sites.

NGF [8] = experiment: NGF production/secretion promoting activity in cultured Schwann cells (enzyme immunoassay of culture fluid); format: cell-based, SD rats; details: 24 hours, concentrations of 10^−4 M to 10^−8 M, result in words
Procedure: Schwann cells were prepared by subjecting the dorsal spinal root ganglion collected from 10 newborn SD rats to enzyme treatment using 0.25% trypsin containing 0.01% deoxyribonuclease (DNase, produced by Sigma), followed by cloning from the cell group obtained. […]
The culture fluid obtained in each run of Reference Example 1A was recovered and assayed for the neurotrophin content therein. […] After washing, 30 μl of 4-methylumbelliferyl-β-D-galactoside (produced by Sigma) (10 μg/μl) was added to the substrate, the reaction was allowed to proceed at room temperature for 4 hours and then terminated by addition of 130 μl of 0.1 M glycine-sodium hydroxide buffer (pH 10.3), and the fluorescent intensity of the 4-methylumbelliferone produced was determined (Ex: 360 nm; Em: 450 nm). The amount of NGF was calculated based on a standard curve and expressed in terms of relative multiplicity in relation to the amount of NGF (control) produced and secreted by cells treated in the same manner without adding the test compound. […]

[9] = Mean ± SD (n = 5 to 8), **: p < 0.01 vs STZ group
[10] = pons, Mean ± SD (n = 10), **: p < 0.01 vs STZ group
[11] = 0.1 to 3 mg/kg body weight orally for 4 weeks, hippocampus, Mean ± SD (n = 8 to 9), *: p < 0.05 vs STZ group
[12] = 0.1 to 3 mg/kg body weight orally for 4 weeks, sciatic nerve, Mean ± SD (n = 8 to 9), *: p < 0.05 vs STZ group

Structure (SMILES): Cc1ccccc1OCCCc1oc(-n2ccnc2C)nc1-c1ccc(Cl)cc1 [Compound (5), 4-(4-chlorophenyl)-2-(2-methyl-1-imidazolyl)-5-[3-(2-methylphenoxy)propyl]oxazole]
- SNCV (m/s) [1, 9]: 41.1 ± 7.9** m/s
- sensory nerve conduction velocity, effect versus STZ group ([1]; result in words): recovered
- BDNF (pg/g tissue) (BDNF [2]; [10]): 4151 ± 1161** pg/g tissue
- amount of BDNF in pons, effect versus STZ group (BDNF [2]; result in words): increased
- NT-3 (pg/g tissue) (NT-3; [10]): 352 ± 118** pg/g tissue
- amount of NT-3 in pons, effect versus STZ group (NT-3; result in words): increased
- BDNF (ng/g tissue) Hippocampus (BDNF [3]; [11]): 3.5 ± 0.3* ng/g tissue
- BDNF (ng/g tissue) Sciatic nerve (BDNF [3]; [12]): 5.0 ± 0.6* ng/g tissue
- BDNF production/secretion promoting activity at the sciatic nerve and the hippocampus (BDNF [3]; oral, 4 weeks, result in words): excellent
- NGF (pg/g tissue) Hippocampus (NGF [4]; [11]): 738 ± 105* pg/g tissue
- NGF (pg/g tissue) Sciatic nerve (NGF [4]; [12]): 495 ± 143* pg/g tissue
- NGF production/secretion promoting activity at the sciatic nerve and the hippocampus (NGF [4]; oral, 4 weeks, result in words): excellent
- Pain threshold (g) ([5]; hind-limb, Mean ± SD (n = 10), **: p < 0.01 vs STZ group): 109 ± 19** g
- hyperalgesia, effect versus STZ group ([5]; result in words): ameliorated
- BDNF production/secretion promoting activity (BDNF [6]): excellent
- MNCV (m/s) [7, 9]: 54.9 ± 7.6** m/s
- motor nerve conduction velocity, effect versus STZ group ([7]; result in words): recovered
- NGF production/secretion promoting activity (NGF [8]): excellent
